IC50 and Ki data for 15 molecules are collected here from US20130102619A1, “2-PYRIDYLOXY-4-NITRILE OREXIN RECEPTOR ANTAGONISTS” (priority 2011, published 2013).

Some results are limits rather than exact numbers.

The target in experiment [1] is T1, human orexin-2 receptor (Homo sapiens (Human), UniProt O43614). Nature of the experiment: FLIPR Ca2+ Flux Assay, CHO cells expressing human orexin-2 receptor. It counts as cell-based. The note with it: 70 pM Ala-6,12 orexin-A agonist, read-out: hOX2R FLIPR IC50. The procedure:
(§1) The utility of the compounds in accordance with the present invention as orexin receptor OX1R and/or OX2R antagonists may be readily determined without undue experimentation by methodology well known in the art, including the “FLIPR Ca^2+ Flux Assay” (Okumura et al., Biochem. Biophys. Res. Comm. 280:976-981, 2001). In a typical experiment the OX1 and OX2 receptor antagonistic activity of the compounds of the present invention was determined in accordance with the following experimental method. For intracellular calcium measurements, Chinese hamster ovary (CHO) cells expressing the rat orexin-1 receptor or the human orexin-2 receptor, are grown in Iscove's modified DMEM containing 2 mM L-glutamine, […], 1% hypoxanthine-thymidine supplement, 100 U/ml penicillin, 100 ug/ml streptomycin and 10% heat-inactivated fetal calf serum (FCS). The cells are seeded at 20,000 cells/well into Becton-Dickinson black 384-well clear bottom sterile plates coated with poly-D-lysine. All reagents were from GIBCO-Invitrogen Corp. The seeded plates are incubated overnight at 37° C. and 5% CO2. Ala-6,12 human orexin-A as the agonist is prepared as a 1 mM stock solution in 1% bovine serum albumin (BSA) and diluted in assay buffer (HBSS containing 20 mM HEPES, 0.1% BSA and 2.5 mM probenecid, pH7.4) for use in the assay at a final concentration of 70 pM. Test compounds are prepared as 10 mM stock solution in DMSO, then diluted in 384-well plates, first in DMSO, then assay buffer. On the day of the assay, cells are washed 3 times with 100 ul assay buffer and then incubated for 60 min (37° C., 5% CO2) in 60 ul assay buffer containing 1 uM Fluo-4AM ester, 0.02% pluronic acid, and 1% BSA. The dye loading solution is then aspirated and cells are washed 3 times with 100 ul assay buffer. 30 ul of that same buffer is left in each well. Within the Fluorescent Imaging Plate Reader (FLIPR, Molecular Devices), test compounds are added to the plate in a volume of 25 ul, incubated for 5 min and finally 25 ul of agonist is added. Fluorescence is measured for each well at 1 second intervals for 5 minutes and the height of each fluorescence peak is compared to the height of the fluorescence peak induced by 70 pM Ala-6,12 orexin-A with buffer in place of antagonist. […] Alternatively, compound potency can be assessed by a radioligand binding assay (described in Bergman et. al. Bioorg. Med. Chem. Lett. 2008, 18, 1425-1430) in which the inhibition constant (Ki) is determined in membranes prepared from CHO cells expressing either the OX1 or OX2 receptor. The intrinsic orexin receptor antagonist activity of a compound which may be used in the present invention may be determined by these assays.

The target in experiment [2] is OX1 receptor (hOX1) (Homo sapiens, UniProt O43613). Nature of the experiment: radioligand binding assay, orexin-1 receptor (membranes from CHO cells). The settings on record: CHO cell membranes, read-out: hOX1 hKi. As to the method: In a typical experiment the OX1 and OX2 receptor antagonistic activity of the compounds of the present invention was determined in accordance with the following experimental method. For intracellular calcium measurements, Chinese hamster ovary (CHO) cells expressing the rat orexin-1 receptor or the human orexin-2 receptor, are grown in Iscove's modified DMEM containing 2 mM L-glutamine, […], 1% hypoxanthine-thymidine supplement, 100 U/ml penicillin, 100 ug/ml streptomycin and 10% heat-inactivated fetal calf serum (FCS). The cells are seeded at 20,000 cells/well into Becton-Dickinson black 384-well clear bottom sterile plates coated with poly-D-lysine. All reagents were from GIBCO-Invitrogen Corp. The seeded plates are incubated overnight at 37° C. and 5% CO2. Ala-6,12 human orexin-A as the agonist is prepared as a 1 mM stock solution in 1% bovine serum albumin (BSA) and diluted in assay buffer (HBSS containing 20 mM HEPES, 0.1% BSA and 2.5 mM probenecid, pH7.4) for use in the assay at a final concentration of 70 pM. Test compounds are prepared as 10 mM stock solution in DMSO, then diluted in 384-well plates, first in DMSO, then assay buffer. On the day of the assay, cells are washed 3 times with 100 ul assay buffer and then incubated for 60 min (37° C., 5% CO2) in 60 ul assay buffer containing 1 uM Fluo-4AM ester, 0.02% pluronic acid, and 1% BSA. The dye loading solution is then aspirated and cells are washed 3 times with 100 ul assay buffer. 30 ul of that same buffer is left in each well. Within the Fluorescent Imaging Plate Reader (FLIPR, Molecular Devices), test compounds are added to the plate in a volume of 25 ul, incubated for 5 min and finally 25 ul of agonist is added. Fluorescence is measured for each well at 1 second intervals for 5 minutes and the height of each fluorescence peak is compared to the height of the fluorescence peak induced by 70 pM Ala-6,12 orexin-A with buffer in place of antagonist. […] Alternatively, compound potency can be assessed by a radioligand binding assay (described in Bergman et. al. Bioorg. Med. Chem. Lett. 2008, 18, 1425-1430) in which the inhibition constant (Ki) is determined in membranes prepared from CHO cells expressing either the OX1 or OX2 receptor. The intrinsic orexin receptor antagonist activity of a compound which may be used in the present invention may be determined by these assays.

Experiment [3] deals with rat orexin-1 receptor (Rattus norvegicus (Rat), UniProt P56718). As to the kind of experiment: FLIPR Ca2+ Flux Assay, CHO cells expressing rat orexin-1 receptor.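 Note: concentration giving 50% inhibition of the agonist-induced calcium response.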 The format is cell-based. The note with it: 70 pM Ala-6,12 orexin-A agonist, read-out: hOX1R FLIPR IC50. As to the method:
as §1
On the technique in general: Calcium flux is commonly read through the fluorescence of an indicator in the cells.

The target of experiment [4] is T1, human orexin-2 receptor. Nature of the experiment: radioligand binding assay, orexin-2 receptor (membranes from CHO cells). The note with it: CHO cell membranes, read-out: hOX2 hKi. As to the method: as §1

T1 sequence (O43614 whole entry): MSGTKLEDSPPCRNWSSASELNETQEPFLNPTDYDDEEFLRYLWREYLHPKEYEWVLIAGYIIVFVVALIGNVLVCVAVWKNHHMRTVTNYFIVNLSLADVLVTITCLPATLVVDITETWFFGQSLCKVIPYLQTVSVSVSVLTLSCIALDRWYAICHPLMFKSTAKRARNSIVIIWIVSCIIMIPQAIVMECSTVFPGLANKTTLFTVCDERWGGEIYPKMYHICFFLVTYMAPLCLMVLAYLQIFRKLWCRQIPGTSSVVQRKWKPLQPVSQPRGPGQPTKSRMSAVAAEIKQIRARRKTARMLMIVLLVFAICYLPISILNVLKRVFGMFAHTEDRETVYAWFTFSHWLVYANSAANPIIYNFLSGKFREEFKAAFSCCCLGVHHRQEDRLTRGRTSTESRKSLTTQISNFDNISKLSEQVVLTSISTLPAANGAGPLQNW
rat orexin-1 receptor, sequence (P56718 whole entry): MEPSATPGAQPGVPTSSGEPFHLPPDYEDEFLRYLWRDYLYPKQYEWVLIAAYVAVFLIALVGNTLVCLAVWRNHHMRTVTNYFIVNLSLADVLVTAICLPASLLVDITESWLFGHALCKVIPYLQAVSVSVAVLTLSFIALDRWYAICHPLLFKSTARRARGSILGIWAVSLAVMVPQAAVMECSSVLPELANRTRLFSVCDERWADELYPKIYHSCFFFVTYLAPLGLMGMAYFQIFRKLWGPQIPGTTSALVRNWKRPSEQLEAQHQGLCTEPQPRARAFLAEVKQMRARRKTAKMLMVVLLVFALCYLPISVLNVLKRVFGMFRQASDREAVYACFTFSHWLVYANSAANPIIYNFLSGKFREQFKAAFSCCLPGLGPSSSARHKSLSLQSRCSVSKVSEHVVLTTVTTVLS

Usually IC50 stands for the concentration that inhibits the measured activity by half. Turning to `Cc1cccc(-n2nccn2)c1C(=O)N1C[C@H](Oc2cc(C#N)ccn2)CC[C@H]1C` [Example 4, 2-{[(3R,6R)-6-methyl-1-{[2-methyl-6-(2H-1,2,3-triazol-2-yl)phenyl]carbonyl}piperidin-3-yl]oxy}pyridine-4-carbonitrile], the IC50 in experiment [1] is 29 nM; in experiment [3], over 10000 nM. Besides, the Ki is 932 nM in experiment [2] and 2.3 nM in experiment [4].
As for `C[C@@H]1CC[C@@H](Oc2cc(C#N)ccn2)CN1C(=O)c1cc(F)ccc1-c1ncccn1` [Example 35, 2-({(3R,6R)-1-[(5-fluoro-2-pyrimidin-2-ylphenyl)carbonyl]-6-methylpiperidin-3-yl}oxy)pyridine-4-carbonitrile], the IC50 in experiment [1] was found to be 31 nM; in experiment [3], 8040 nM. The Ki was 658 nM in experiment [2] and 1 nM in experiment [4].
For the molecule `C[C@@H]1CC[C@@H](Oc2cc(C#N)ccn2)CN1C(=O)c1sccc1-n1nccn1` [Example 14, 2-{[(3R,6R)-6-methyl-1-{[3-(2H-1,2,3-triazol-2-yl)thiophen-2-yl]carbonyl}piperidin-3-yl]oxy}pyridine-4-carbonitrile], the values for the IC50 in experiment [1] and in experiment [3] were 65 nM and over 10000 nM, respectively. The Ki is 5340 nM in experiment [2] and 15 nM in experiment [4].
For `C[C@@H]1CC[C@@H](Oc2cc(C#N)ccn2)CN1C(=O)c1cccc(F)c1-n1nccn1` [Example 6, 2-{[(3R,6R)-1-{[3-fluoro-2-(2H-1,2,3-triazol-2-yl)phenyl]carbonyl}-6-methylpiperidin-3-yl]oxy}pyridine-4-carbonitrile], in that order: 18 nM, over 10000 nM, 1900 nM and 5.5 nM.
For the molecule `Cc1cccc(C(=O)N2C[C@H](Oc3cc(C#N)ccn3)CC[C@H]2C)c1-n1nccn1` [Example 5, 2-{[(3R,6R)-6-methyl-1-{[3-methyl-2-(2H-1,2,3-triazol-2-yl)phenyl]carbonyl}piperidin-3-yl]oxy}pyridine-4-carbonitrile], the IC50 in experiment [1] worked out at 17 nM; in experiment [3], 2330 nM. Besides, the Ki in experiment [2] was 669 nM; in experiment [4] it was 3 nM.
For `COc1ccc(C(=O)N2C[C@H](Oc3cc(C#N)ccn3)CC[C@H]2C)c(C2CC2)n1` [Example 20, 2-({(3R,6R)-1-[(2-cyclopropyl-6-methoxypyridin-3-yl)carbonyl]-6-methylpiperidin-3-yl}oxy)pyridine-4-carbonitrile], in that order: 67 nM, over 10000 nM, 12600 nM and 11.5 nM.
On to `C[C@@H]1CC[C@@H](Oc2cc(C#N)ccn2)CN1C(=O)c1c(F)cccc1-c1ncccn1` [Example 36, 2-({(3R,6R)-1-[(2-fluoro-6-pyimidin-2-ylphenyl)carbonl]-6-methylpiperidin-3-yl}oxy)pyridine-4-carbonitrile], for which the results for the concentration for half-maximal inhibition (IC50) in experiment [1] and in experiment [3] were 47 nM and over 10000 nM, respectively. The Ki in experiment [2] amounted to 930 nM; in experiment [4], 2.1 nM.
For `C[C@@H]1CC[C@@H](Oc2cc(C#N)ccn2)CN1C(=O)c1cc(Br)ccc1-n1nccn1` [Example 15, 2-{[(3R,6R)-1-{[5-bromo-2-(2H-1,2,3-triazol-2-yl)phenyl]carbonyl}-6-methylpiperidin-3-yl]oxy}pyridine-4-carbonitrile], in that order: 62 nM, 1040 nM, 265 nM and 9.1 nM.
For the molecule `COc1ccc(C(=O)N2C[C@H](Oc3cc(C#N)ccn3)CC[C@H]2C)c(-n2nccn2)n1` [Example 17, 2-{[(3R,6R)-1-{[6-methoxy-2-(2H-1,2,3-triazol-2-yl)pyridin-3-yl]carbonyl}-6-methylpiperidin-3-yl]oxy}pyridine-4-carbonitrile], the half-maximal inhibitory concentration (IC50) in experiment [1] is 82 nM; in experiment [3], over 10000 nM. For the same molecule, the Ki in experiment [2] was found to be 5640 nM; in experiment [4], 15 nM.
In the case of `C[C@@H]1CC[C@@H](Oc2cc(C#N)ccn2)CN1C(=O)c1ccc(Cl)cc1-n1nccn1` [Example 29, 2-{[(3R,6R)-1-{[4-chloro-2-(2H-1,2,3-triazol-2-yl)phenyl]carbonyl}-6-methylpiperidin-3-yl]oxy}pyridine-4-carbonitrile], the results for the half-maximal inhibitory concentration (IC50) in experiment [1] and in experiment [3] were 12 nM and 3400 nM, respectively. The Ki in experiment [2] amounted to 1100 nM; in experiment [4] it was 1.3 nM.
On to `C[C@@H]1CC[C@@H](Oc2cc(C#N)ccn2)CN1C(=O)c1ccc(F)cc1-c1ncccn1` [Example 34, 2-({(3R,6R)-1-[(4-fluoro-2-pyrimidin-2-ylphenyl)carbonyl]-6-methylpiperidin-3-yl}oxy)pyridine-4-carbonitrile], for which the results for the IC50 in experiment [1] and in experiment [3] were 48 nM and over 10000 nM, respectively. In addition, the Ki in experiment [2] was found to be 868 nM; in experiment [4], 3.5 nM.
Regarding `Cc1ccc(C(=O)N2C[C@H](Oc3cc(C#N)ccn3)CC[C@H]2C)c(-n2nccn2)c1` [Example 9, 2-{[(3R,6R)-6-methyl-1-{[4-methyl-2-(2H-1,2,3-triazol-2-yl)phenyl]carbonyl}piperidin-3-yl]oxy}pyridine-4-carbonitrile], the half-maximal inhibitory concentration (IC50) came to 22 nM in experiment [1] and 7150 nM in experiment [3]. In addition, the Ki turned out to be 1250 nM in experiment [2] and 3.7 nM in experiment [4].
In the case of `C[C@@H]1CC[C@@H](Oc2cc(C#N)ccn2)CN1C(=O)c1ccsc1-n1nccn1` [Example 10, 2-{[(3R,6R)-6-methyl-1-{[2-(2H-1,2,3-triazol-2-yl)thiophen-3-yl]carbonyl}piperidin-3-yl]oxy}pyridine-4-carbonitrile], the figures for the IC50 in experiment [1] and in experiment [3] were 29 nM and over 10000 nM, respectively. For the same molecule, the Ki in experiment [2] came to 3570 nM; in experiment [4], 5.9 nM.
On to `C[C@@H]1CC[C@@H](Oc2cc(C#N)ccn2)CN1C(=O)c1sccc1-c1ncccn1` [Example 31], for which the 50% inhibitory concentration (IC50) in experiment [1] was 38 nM; in experiment [3] it was over 10000 nM. Further, the results for the Ki in experiment [2] and in experiment [4] were 2720 nM and 5.9 nM, respectively.
As for `C[C@@H]1CC[C@@H](Oc2cc(C#N)ccn2)CN1C(=O)c1c(F)cccc1-n1nccn1` [Example 22, 2-{[(3R,6R)-1-{[2-fluoro-6-(2H-1,2,3-triazol-2-yl)phenyl]carbonyl}-6-methylpipeidin-3-yl]oxy}pyridine-4-carbonitrile], the figures for the concentration for half-maximal inhibition (IC50) in experiment [1] and in experiment [3] were 23 nM and 5750 nM, respectively. Moreover, the Ki in experiment [2] worked out at 1790 nM; in experiment [4] it was 3.4 nM.
